Source: BindingDB's records for doi:10.1016/j.bmcl.2011.12.117 (Astrazeneca, 2012)

Assay: Antagonist activity at CCR5 in allo T cells assessed as inhibition of MIP-1beta-induced chemotaxis

Compound: CCN(C(=O)Cc1ccc(S(C)(=O)=O)cc1)C1CCN(CC[C@@H](c2cc(F)cc(F)c2)C2CCN(S(C)(=O)=O)CC2)CC1
- IC50: 690 pM
